Source: patent US7291621B2, “Substituted biaryl amides C5a receptor modulators” (Neurogen Corporation, priority 2002, dated 2007)
Like-named read-outs stand apart in the source and are kept apart here.

Target: T1, C5a receptor (Homo sapiens, UniProt P21730)
T1 construct: endogenous in cells; host or cells: U937 cells differentiated with 1 mM dibutyryl cAMP
T1 sequence (P21730 1-350): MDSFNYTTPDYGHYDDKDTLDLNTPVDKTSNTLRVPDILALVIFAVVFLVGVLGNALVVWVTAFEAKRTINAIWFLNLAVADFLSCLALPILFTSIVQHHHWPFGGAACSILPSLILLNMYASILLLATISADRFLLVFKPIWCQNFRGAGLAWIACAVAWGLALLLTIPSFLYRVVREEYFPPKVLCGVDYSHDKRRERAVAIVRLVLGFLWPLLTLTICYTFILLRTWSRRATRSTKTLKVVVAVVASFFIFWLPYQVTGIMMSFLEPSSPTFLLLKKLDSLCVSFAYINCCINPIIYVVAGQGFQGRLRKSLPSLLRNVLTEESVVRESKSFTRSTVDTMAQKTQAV
Assay: standard assay of C5a receptor mediated calcium mobilization
Type: cell-based
Conditions: asterisk = tested in C5a receptor mediated calcium mobilization assay, read-out: Ca2+ Mob.
Method: U937 cells are grown in differentiation media (1 mM dibutyrl cAMP in RPMI 1640 medium containing 10% fetal bovine serum) for 48 hrs at 37° C. then reseeded onto 96-well plates suitable for use in a FLIPR™ Plate Reader (Molecular Devices Corp., Sunnyvale Calif.). Cells are grown an additional 24 hours (to 70-90% confluence) before the assay. The cells are then washed once with Krebs Ringer solution. FLUO-3 calcium sensitive dye (Molecular Probes, Inc. Eugene, Oreg.) is added to 10 μg/mL and incubated with the cells at room temperature for 1 to 2 hours. The 96 well plates are then washed to remove excess dye. Fluorescence responses, measured by excitation at 480 nm and emission at 530 nm, are monitored upon the addition of human C5a to the cells to a final concentration of 0.01-30.0 nM, using the FLIPR™ device (Molecular Devices).
The calcium mobilization assay described above may be readily adapted for identifying test compounds that have agonist or antagonist activity at the human C5a receptor.
For example, in order to identify antagonist compounds, differentiated U937 cells are washed and incubated with Fluo-3 dye as described above. One hour prior to measuring the fluorescence signal, a subset of the cells is incubated with 1 μM of at least one compound to be tested. The fluorescence response upon the subsequent addition of 0.3 nM (final concentration) human recombinant C5a is monitored using the FLIPR™ plate reader. Antagonist compounds elicit at least a 2-fold decrease in the fluorescence response relative to that measured in the presence of human C5a alone. Preferred antagonist compounds elicit at least a 5-fold, preferably at least a 10-fold, and more preferably at least a 20-fold decrease in the fluorescence response relative to that measured in the presence of human C5a alone.

Cc1ccc(-c2ccccc2C(=O)N(Cc2ccccc2F)C2Cc3ccccc3C2)cc1 [compound 94, N-(indan-2-yl)-N-(2-fluorobenzyl)-4′-methyl-1,1′-biphenyl-2-carboxamide]
Ki (Table I): < 1000 nM

COc1ccc(-c2ccccc2)c(C(=O)N(Cc2cccc(C)c2)C2Cc3ccccc3C2)c1 [compound 106, N-(indan-2-yl)-4-methoxy-N-(3-methylbenzyl)-1,1′-biphenyl-2-carboxamide]
Ki (Table I): < 1000 nM

COc1ccc(-c2ccccc2)c(C(=O)N(Cc2ccccc2F)C2Cc3ccccc3C2)c1 [compound 108, N-(indan-2-yl)-N-(2-fluorobenzyl)-4-methoxy-1,1′-biphenyl-2-carboxamide]
Ki (Table I): < 1000 nM

COc1ccc2ccccc2c1C(=O)N(Cc1ccc(C)cc1)C1Cc2ccccc2C1 [compound 223, 2-Methoxy-naphtlalene-1-carboxylic acid (4-methyl-benzyl)-indan-2-yl-amide]
Ki (Table III): < 1000 nM

O=C(c1cc(Cl)ccc1-c1ccccc1)N(Cc1ccc(F)c(F)c1)C1Cc2ccccc2C1 [compound 137, 4-chloro-N-(3,4-difluorobenzyl)-N-(indan-2-yl)-1,1′-biphenyl-2-carboxamide]
Ki (Table I): < 1000 nM

Cc1ccccc1CN(C(=O)c1ccccc1-c1ccccc1)C1Cc2ccccc2C1 [compound 73, N-(indan-2-yl)-N-(2-methylbenzyl)-1,1′-biphenyl-2-carboxamide]
Ki (Table I): < 1000 nM

COc1ccc2ccccc2c1C(=O)N(Cc1ccccc1C)C1Cc2ccccc2C1 [compound 224, 2-Methoxy-naphthalene-1-carboxylic acid (2-methyl-benzyl)-indan-2-yl-amide]
Ki (Table III): < 1000 nM

Cc1ccc(-c2ccsc2)c(C(=O)N(Cc2ccccc2)C2Cc3ccccc3C2)c1 [compound 118, N-benzyl-N-(indan-2-yl)-5-methyl-2-thien-3-ylbenzamide]
Ki (Table I): < 1000 nM

O=C(c1ccccc1-c1ccccc1F)N(Cc1ccc(F)cc1)C1Cc2ccccc2C1 [compound 93, N-(indan-2-yl)-2′-fluoro-N-(4-fluorobenzyl)-1,1′-biphenyl-2-carboxamide]
Ki (Table I): < 1000 nM

Cc1ccc(CN(C(=O)c2ccccc2-c2ccc(C)cc2)C2Cc3ccccc3C2)cc1 [compound 88, N-(indan-2-yl)-4′-methyl-N-(4-methylbenzyl)-1,1′-biphenyl-2-carboxamide]
Ki (Table I): < 1000 nM

Cc1ccc(-c2ccccc2C(=O)N(Cc2cccc(C)c2)C2Cc3ccccc3C2)cc1 [compound 97, N-(indan-2-yl)-4′-methyl-N-(3-methylbenzyl)-1,1′-biphenyl-2-carboxamide]
Ki (Table I): < 1000 nM

O=C(c1ccccc1-c1ccccc1)N(Cc1ccccc1F)C1Cc2ccccc2C1 [compound 78, N-(indan-2-yl)-N-(2-fluorobenzyl)-1,1′-biphenyl-2-carboxamide]
Ki (Table I): < 1000 nM

Cc1cc(CN(Cc2ccccc2)C(=O)c2ccccc2-c2ccccc2)cc(C)c1O [compound 150, N-benzyl-N-(4-hydroxy-3,5-dimethylbenzyl)-1,1′-biphenyl-2-carboxamide]
Ki (Table I): < 1000 nM

O=C(c1ccccc1-c1ccsc1)N(Cc1ccc2ccccc2c1)C1Cc2ccccc2C1 [compound 86, N-(indan-2-yl)-N-(2-naphthylmethyl)-2-thien-3-ylbenzamide]
Ki (Table I): < 1000 nM

Cc1ccccc1CN(C(=O)c1cc(Cl)ccc1-c1ccccc1)C1Cc2ccccc2C1 [compound 131, 4-chloro-N-(indan-2-yl)-N-(2-methylbenzyl)-1,1′-biphenyl-2-carboxamide]
Ki (Table I): < 1000 nM

Cc1ccc(-c2ccccc2C(=O)N(Cc2ccccc2)C2Cc3ccccc3C2)cc1 [compound 58, N-benzyl-N-(indan-2-yl)4′-methyl-1,1′-biphenyl-2-carboxamide]
Ki (Table I): < 1000 nM

O=C(c1ccccc1-c1cccc(Cl)c1Cl)N(Cc1ccccc1)Cc1ccccc1 [compound 51, N,N-dibenzyl-2′,3′-dichloro-1,1′-biphenyl-2-carboxamide]
Ki (Table I): < 1000 nM

O=C(c1ccccc1-c1ccc(F)cc1)N(Cc1ccccc1)Cc1ccccc1 [compound 34, N,N-dibenzyl4′-fluoro-1,1′-biphenyl-2-carboxamide]
Ki (Table I): < 1000 nM

O=C(c1ccccc1-c1ccsc1)N(Cc1cccc(-c2ccsc2)c1)C1Cc2ccccc2C1 [compound 85, N-(indan-2-yl)-2-thien-3-yl-N-(3-thien-3-ylbenzyl)benzamide]
Ki (Table I): < 1000 nM

O=C(c1cc(Cl)ccc1-c1ccccc1)N(Cc1cccc(F)c1)C1Cc2ccccc2C1 [compound 135, 4-chloro-N-(indan-2-yl)-N-(3-fluorobenzyl)-1,1′-biphenyl-2-carboxamide]
Ki (Table I): < 1000 nM

O=C(c1ccccc1-c1ccccc1)N(Cc1ccc2c(c1)OCO2)C1Cc2ccccc2C1 [compound 79, N-(1,3-benzodioxol-5-ylmethyl)-N-(indan-2-yl)-1,1′-biphenyl-2-carboxamide]
Ki (Table I): < 1000 nM

COc1ccccc1CN(C(=O)c1ccccc1-c1ccccc1F)C1Cc2ccccc2C1 [compound 82, N-(indan-2-yl)-2′-fluoro-N-(2-methoxybenzyl)-1,1′-biphenyl-2-carboxamide]
Ki (Table I): < 1000 nM

O=C(c1ccccc1-c1ccccc1F)N(Cc1cccc(F)c1)C1Cc2ccccc2C1 [compound 96, N-(indan-2-yl)-2′-fluoro-N-(3-fluorobenzyl)-1,1′-biphenyl-′-carboxamide]
Ki (Table I): < 1000 nM

O=C(c1ccccc1-c1ccc(OC(F)(F)F)cc1)N(Cc1ccccc1)Cc1ccccc1 [compound 36, N,N-dibenzyl-4′-(trifluoromethoxy)-1,1′-biphenyl-2-carboxamide]
Ki (Table I): < 1000 nM

O=C(c1c(F)cccc1-c1ccccc1)N(Cc1ccccc1)C1Cc2ccccc2C1 [compound 112, N-benzyl-N-(indan-2-yl)-3-fluoro-1,1′-biphenyl-2-carboxamide]
Ki (Table I): < 1000 nM

COc1ccc2ccccc2c1C(=O)N(Cc1ccc2c(c1)OCO2)C1Cc2ccccc2C1 [compound 228, 2-Methoxy-naphthalene-1-carboxylic acidbenzo[1,3]dioxol-5-ylmethyl-indan-2-yl-amide]
Ki (Table III): < 1000 nM

COc1ccc(-c2ccccc2)c(C(=O)N(Cc2ccccc2C)C2Cc3ccccc3C2)c1 [compound 105, N-(indan-2-yl)-4-methoxy-N-(2-methylbenzyl)-1,1′-biphenyl-2-carboxamide]
Ki (Table I): < 1000 nM

O=C(c1ccccc1-c1ccsc1)N(Cc1ccccc1)Cc1ccccc1 [compound 41, N,N-dibenzyl-2-thien-3-ylbenzamide]
Ki (Table I): < 1000 nM

Cc1cccc(-c2ccccc2)c1C(=O)N(Cc1ccc(F)cc1)C1Cc2ccccc2C1 [compound 125, N-(indan-2-yl)-N-(4-fluorobenzyl)-3-methyl-1,1′-biphenyl-2-carboxamide]
Ki (Table I): < 1000 nM

Cc1ccc(-c2ccccc2C(=O)N(Cc2ccccc2)Cc2ccc(OC(F)F)cc2)s1 [compound 148, N-benzyl-N-[4-(difluoromethoxy)benzyl]-2-(5-methylthien-2-yl)benzamide]
Ki (Table I): < 1000 nM

O=C(c1ccccc1-c1ccccc1)N(Cc1ccccc1)Cc1ccccc1 [compound 47, N,N-dibenzyl-1,1′-biphenyl-2-carboxamide]
Ki (Table I): < 1000 nM

O=C(c1cc(Cl)ccc1-c1ccccc1)N(Cc1ccccc1F)C1Cc2ccccc2C1 [compound 134, 4-chloro-N-(indan-2-yl)-N-(2-fluorobenzyl)-1,1′-biphenyl-2-carboxamide]
Ki (Table I): < 1000 nM

COc1cccc(-c2ccccc2C(=O)N(Cc2ccc3c(c2)OCO3)C2Cc3ccccc3C2)c1 [compound 64, N-(1,3-benzodioxol-5-ylmethyl)-N-(indan-2-yl)-3′-methoxy-1,1′-biphenyl-2-carboxamide]
Ki (Table I): < 1000 nM

Cc1cccc(-c2ccccc2)c1C(=O)N(Cc1ccc(F)c(F)c1)C1Cc2ccccc2C1 [compound 126, N-(3,4-difluorobenzyl)-N-(indan-2-yl)-3-methyl-1,1′-biphenyl-2-carboxamide]
Ki (Table I): < 1000 nM

O=C(c1ccccc1-c1ccccc1F)N(Cc1ccccc1)Cc1ccccc1 [compound 87, N,N-dibenzyl-2′-fluoro-1,1′-biphenyl-2-carboxamide]
Ki (Table I): < 1000 nM

COc1ccc(-c2ccccc2C(=O)N(Cc2ccccc2)Cc2ccccc2)cc1OC [compound 46, N,N-dibenzyl-3′,4 ′-dimethoxy-1,1′-biphenyl-2-carboxamide]
Ki (Table I): < 1000 nM

Cc1ccc(CN(C(=O)c2c(O)ccc3ccccc23)C2Cc3ccccc3C2)cc1 [compound 238, 2-Hydroxy-naphthalene-1-carboxylic acid (4-methyl-benzyl)-indan-2-yl-amide]
Ki (Table III): < 1000 nM
